Reference: patent publication US9701689B2, “Substituted pyridines and pyridazines as CCR10 receptor inhibitors” (KYOWA HAKKO KIRIN CO., LTD., priority 2012, dated 2017)

Molecular target: T1, human CCR10 (Homo sapiens, UniProt P46092)
T1 construct: expressed in transfected cells; host or cells: KJMGER8 cells (Namalwa cell-derived line), beta-estradiol-induced; hCCR10G16 cells
T1 sequence (P46092 1-362): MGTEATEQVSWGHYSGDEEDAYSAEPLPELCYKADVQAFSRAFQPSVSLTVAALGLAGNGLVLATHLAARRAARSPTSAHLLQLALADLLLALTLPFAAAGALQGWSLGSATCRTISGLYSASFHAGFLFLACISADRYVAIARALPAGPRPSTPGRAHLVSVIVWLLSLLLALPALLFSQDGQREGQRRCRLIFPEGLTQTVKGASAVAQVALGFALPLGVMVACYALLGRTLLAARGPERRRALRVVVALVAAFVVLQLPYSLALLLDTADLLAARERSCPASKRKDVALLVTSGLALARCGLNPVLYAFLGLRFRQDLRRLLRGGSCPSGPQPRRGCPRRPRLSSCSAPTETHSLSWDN
Experiment: CCR10 antagonistic effect: calcium assay of human CCR10 (CTACK-induced increase of intracellular calcium in hCCR10G16 cells)
Assay type: cell-based
Details: at a concentration of not more than 1000 nmol/L; human CCR10-expressing hCCR10G16 cells, 300 nmol/L CTACK added; read-out: inhibition of increase in the calcium ion concentration
Method: [Experimental Example 1] CCR10 Antagonistic Effect
(1) Preparation of Human CCR10-Inducible Expression Plasmid
A CCR10-inducible expression plasmid was prepared according to a known method [Analytical Biochemistry, 2006, vol. 400, page 163]. A DNA encoding human CCR10 was obtained by PCR. Using human chromosome DNA (100 ng; manufactured by Clontech) as a template, synthetic DNA having the sequences depicted in SEQ ID NOs: 1 and 2 as a human CCR10 cDNA specific primer, and Pyrobest DNA Polymerase (manufactured by TAKARA SHUZO CO. LTD.) as an enzyme, a DNA encoding human CCR10 was obtained by PCR. As a buffer for PCR, the buffer attached to the enzyme to be used, which was diluted 10-fold with deionized water, was used. Using Thermal Cycler DNA Engine (manufactured by MJ Research), PCR was performed by 35 cycles of reactions composed of an incubation at 94° C. for 30 sec, at an anneal temperature of 58° C. for 30 sec, and at 72° C. for 1 min after treating at 90° C. for 2 min.
The amplified PCR fragment was cleaved with HindIII and NotI, then a human CCR10 DNA fragment was recovered by the agarose gel electrophoresis method. The fragment was incorporated between the corresponding restriction enzyme sites (HindIII-NotI) of an inducible expression vector to construct a human CCR10-inducible expression plasmid.
Using a primer specific to the sequence of plasmid (synthetic DNA having the sequences shown in SEQ ID NOs: 3 and 4), the sequence of human CCR10 DNA region was determined. For the determination of the base sequence, DNA Sequencer 377 (manufactured by Perkin Elmer. Co.) and a reaction kit (ABI Prism (registered trade mark) BigDye (registered trade mark) Terminator Cycle Sequencing Ready Reaction kit: manufactured by Applied Biosystems) were used. The sequence of human CCR10 DNA was identical with the sequence (NM 016602) registered in GenBank.
(2) Preparation of Human CCR10 Expressing Cell for Calcium Assay
Cells for detecting signals from human CCR10 in calcium assay were prepared. According to a known method [Analytical.Biochemistry (Analy Biochem), 2006, vol. 400, page 163], human CCR10-inducible expressing cells whose host cell is KJMGER8 cell (Namalwa cell-derived cell line) were prepared. Human CCR10-inducible expression plasmid produced above and Gα16 expression plasmid were co-transfected into the KJMGER8 cells by the electroporation method [Cytotechnology, 1990, vol. 3, page 133], whereby the signals from human CCR10 could be detected by calcium assay (hereinafter to be referred to as hCCR10G16 cell). A Ga16 expression plasmid was produced by incorporating human Ga16 DNA into expression vector pAMoh (WO 03/087366). Expression of human CCR10 was induced by cultivating hCCR10G16 cells in the presence of 10 nmol/L β-estradiol (manufactured by Sigma Ltd.) for 24 hr.
(3) Calcium Assay of Human CCR10
Cells expressing human CCR10 induced by the above-mentioned method were suspended in RPMI1640 medium (manufactured by Invitrogen), and adjusted to a cell density of 2×10^6 cells/mL. The cells were blended with an equivalent volume of a loading buffer prepared according to the attached protocol of Fluo-3 calcium assay kit (manufactured by Molecular Devices Corporation), and incubated at 37° C. for several dozen minutes. This mixture was dispensed to a 384 well clear-bottom plate (manufactured by Corning Incorporated) at 40 μL/well. To this plate was added a solution of the test compound in dimethyl sulfoxide (DMSO), which was diluted 37-fold with RPMI1640 medium, at 5 μL/well, and the mixture was incubated at 37° C. for 30 min. 300 nmol/L human recombinant CTACK (manufactured by R&D Systems, Inc.) diluted with RPMI1640 medium containing 1 w/v % bovine serum albumin (manufactured by Sigma Ltd.) was added at 5 μL/well and, variation of intracellular calcium ion concentration for about 5 min after the addition was measured by a screening apparatus (FDSS; manufactured by Hamamatsu Photonics K.K.). […]

Q: `Cc1cc(F)ccc1Nc1cc(S(=O)(=O)O)ncc1C(=O)N1CCC(c2ccc(F)cc2)CC1` [Compound 1, 4-(4-fluoro-2-methylphenylamino)-5-[4-(4-fluorophenyl)piperidine-1-carbonyl]pyridine-2-sulfonic acid] was tested. Which inhibition at up to 1 µM did it give?
A: The inhibition at up to 1 µM was at least 50%.

Q: With `Cc1cc(F)ccc1Nc1cc(S(N)(=O)=O)ncc1C(=O)N1CCC(c2ccc(F)cc2)CC1` [Compound 2, 4-(4-fluoro-2-methylphenylamino)-5-[4-(4-fluorophenyl)piperidine-1-carbonyl]pyridine-2-sulfonamide] as the compound, how does the inhibition at up to 1 µM read?
A: The inhibition at up to 1 µM was at least 50%.

Q: For `NS(=O)(=O)c1cc(Nc2ccc3c(c2)COC3)c(C(=O)N2CCC(c3ccc(F)cc3)CC2)cn1` [Compound 3, 4-(1,3-dihydroisobenzofuran-5-ylamino)-5-[4-(4-fluorophenyl)piperidine-1-carbonyl]pyridine-2-sulfonamide], which inhibition at up to 1 µM is on record?
A: Its inhibition at up to 1 µM is at least 50%.

Q: How did the inhibition at up to 1 µM turn out when `NS(=O)(=O)c1cc(Nc2ccc3ncccc3c2)c(C(=O)N2CCC(c3ccc(F)cc3)CC2)cn1` [Compound 4, 5-[4-(4-fluorophenyl)piperidine-1-carbonyl]-4-(quinolin-6-ylamino)pyridine-2-sulfonamide] was run?
A: The inhibition at up to 1 µM was at least 50%.

Q: With `Cc1cc(F)ccc1Nc1cc(S(=O)(=O)NC2CC2)ncc1C(=O)N1CCC(c2ccc(F)cc2)CC1` [Compound 5, N-cyclopropyl-4-(4-fluoro-2-methylphenylamino)-5-[4-(4-fluorophenyl)piperidine-1-carbonyl]pyridine-2-sulfonamide] as the compound, how does the inhibition at up to 1 µM read?
A: Its inhibition at up to 1 µM is at least 50%.

Q: Which inhibition at up to 1 µM does the source give for `CC(=O)NC1CCN(S(=O)(=O)c2cc(Nc3ccc(F)cc3C)c(C(=O)N3CCC(c4ccc(F)cc4)CC3)cn2)C1` (stereo not drawn) [Compound 7, N-{1-{4-(4-fluoro-2-methylphenylamino)-5-[4-(4-fluorophenyl)piperidine-1-carbonyl]pyridin-2-ylsulfonyl}pyrrolidin-3-yl}acetamide] here?
A: The inhibition at up to 1 µM was at least 50%.

Q: Which inhibition at up to 1 µM does the source give for `Cc1cc(F)ccc1Nc1cc(S(=O)(=O)NC2CCN(C)C2=O)ncc1C(=O)N1CCC(c2ccc(F)cc2)CC1` (stereo not drawn) [Compound 8, 4-(4-fluoro-2-methylphenylamino)-5-[4-(4-fluorophenyl)piperidine-1-carbonyl]-N-(1-methyl-2-oxopyrrolidin-3-yl)pyridine-2-sulfonamide] here?
A: The inhibition at up to 1 µM was at least 50%.

Q: Which inhibition at up to 1 µM does the source give for `Cc1cc(F)ccc1Nc1cc(S(=O)(=O)N2CCNCC2)ncc1C(=O)N1CCC(c2ccc(F)cc2)CC1` [Compound 9, [4-(4-fluoro-2-methylphenylamino)-6-(piperazin-1-ylsulfonyl)pyridin-3-yl][4-(4-fluorophenyl)piperidin-1-yl]methanone] here?
A: The inhibition at up to 1 µM was at least 50%.

Q: `Cc1cc(F)ccc1Nc1cc(S(=O)(=O)N2CCC(N)CC2)ncc1C(=O)N1CCC(c2ccc(F)cc2)CC1` [Compound 10, [6-(4-aminopiperidin-1-ylsulfonyl)-4-(4-fluoro-2-methylphenylamino)pyridin-3-yl][4-(4-fluorophenyl)piperidin-1-yl]methanone] was tested. Which inhibition at up to 1 µM did it give?
A: Its inhibition at up to 1 µM is at least 50%.

Q: For `Cc1cc(NS(=O)(=O)c2cc(Nc3ccc(F)cc3C)c(C(=O)N3CCC(c4ccc(F)cc4)CC3)cn2)on1` [Compound 12, 4-(4-fluoro-2-methylphenylamino)-5-[4-(4-fluorophenyl)piperidine-1-carbonyl]-N-(3-methylisoxazol-5-yl)pyridine-2-sulfonamide], which inhibition at up to 1 µM is on record?
A: The inhibition at up to 1 µM was at least 50%.

Q: For `CC(=O)NS(=O)(=O)c1cc(Nc2ccc(F)cc2C)c(C(=O)N2CCC(c3ccc(F)cc3)CC2)cn1` [Compound 13, N-{4-(4-fluoro-2-methylphenylamino)-5-[4-(4-fluorophenyl)piperidine-1-carbonyl]pyridine-2-sulfonyl}acetamide], which inhibition at up to 1 µM is on record?
A: Its inhibition at up to 1 µM is at least 50%.

Q: With `Cc1cc(F)ccc1Nc1cc(S(=O)(=O)NC(=O)C2CC2(F)F)ncc1C(=O)N1CCC(c2ccc(F)cc2)CC1` (stereo not drawn) [Compound 14, 2,2-difluoro-N-{4-(4-fluoro-2-methylphenylamino)-5-[4-(4-fluorophenyl)piperidine-1-carbonyl]pyridine-2-sulfonyl}cyclopropanecarboxamide] as the compound, how does the inhibition at up to 1 µM read?
A: Its inhibition at up to 1 µM is at least 50%.

Q: `NS(=O)(=O)c1cc(NCc2ccccc2)c(C(=O)N2CCC(c3ccc(F)cc3)CC2)cn1` [Compound 15, 4-(benzylamino)-5-[4-(4-fluorophenyl)piperidine-1-carbonyl]pyridine-2-sulfonamide] was tested. Which inhibition at up to 1 µM did it give?
A: The inhibition at up to 1 µM was at least 50%.

Q: `CCCNC(=O)NS(=O)(=O)c1cc(NCc2ccccc2)c(C(=O)N2CCC(c3ccc(F)cc3)CC2)cn1` [Compound 16, 4-(benzylamino)-5-[4-(4-fluorophenyl)piperidine-1-carbonyl]-N-(propylcarbamoyl)pyridine-2-sulfonamide] was tested. Which inhibition at up to 1 µM did it give?
A: The inhibition at up to 1 µM was at least 50%.

Q: For `Cc1cc(Nc2cc(S(N)(=O)=O)ncc2C(=O)N2CCC(c3ccc(F)cc3)CC2)c(C)cc1Cl` [Compound 17, 4-(4-chloro-2,5-dimethylphenylamino)-5-[4-(4-fluorophenyl)piperidine-1-carbonyl]pyridine-2-sulfonamide], which inhibition at up to 1 µM is on record?
A: Its inhibition at up to 1 µM is at least 50%.

Q: How did the inhibition at up to 1 µM turn out when `Cc1cc(Nc2cc(S(=O)(=O)NC(=O)NC(C)C)ncc2C(=O)N2CCC(c3ccc(F)cc3)CC2)c(C)cc1Cl` [Compound 18, 4-(4-chloro-2,5-dimethylphenylamino)-5-[4-(4-fluorophenyl)piperidine-1-carbonyl]-N-(isopropylcarbamoyl)pyridine-2-sulfonamide] was run?
A: Its inhibition at up to 1 µM is at least 50%.

Q: How did the inhibition at up to 1 µM turn out when `CCOC(=O)NS(=O)(=O)c1cc(Nc2cc(C)c(Cl)cc2C)c(C(=O)N2CCC(c3ccc(F)cc3)CC2)cn1` [Compound 19, ethyl 4-(4-chloro-2,5-dimethylphenylamino)-5-[4-(4-fluorophenyl)piperidine-1-carbonyl]pyridin-2-ylsulfonylcarbamate] was run?
A: The inhibition at up to 1 µM was at least 50%.

Q: `Cc1cc(Cl)ccc1Nc1cc(S(N)(=O)=O)ncc1C(=O)N1CCC(c2ccc(F)cc2)CC1` [Compound 20, 4-(4-chloro-2-methylphenylamino)-5-[4-(4-fluorophenyl)piperidine-1-carbonyl]pyridine-2-sulfonamide] was tested. Which inhibition at up to 1 µM did it give?
A: Its inhibition at up to 1 µM is at least 50%.

Q: With `CCNC(=O)N(C)S(=O)(=O)c1cc(Nc2ccc(F)cc2C)c(C(=O)N2CCC(c3ccc(F)cc3)CC2)cn1` [Compound 23, N-(ethylcarbamoyl)-4-(4-fluoro-2-methylphenylamino)-5-[4-(4-fluorophenyl)piperidine-1-carbonyl]-N-methylpyridine-2-sulfonamide] as the compound, how does the inhibition at up to 1 µM read?
A: The inhibition at up to 1 µM was at least 50%.

Q: For `Cc1cc(F)ccc1Nc1c(C(=O)N2CCC(c3ccc(F)cc3)CC2)cnc(S(=O)(=O)O)c1Cl` [Compound 24, 3-chloro-4-(4-fluoro-2-methylphenylamino)-5-[4-(4-fluorophenyl)piperidine-1-carbonyl]pyridine-2-sulfonic acid], which inhibition at up to 1 µM is on record?
A: Its inhibition at up to 1 µM is at least 50%.

Q: `Cc1cccc(Nc2c(C(=O)N3CCC(c4ccc(F)cc4)CC3)cnc(S(N)(=O)=O)c2Cl)c1` [Compound 26, 3-chloro-5-[4-(4-fluorophenyl)piperidine-1-carbonyl]-4-(m-tolylamino)pyridine-2-sulfonamide] was tested. Which inhibition at up to 1 µM did it give?
A: Its inhibition at up to 1 µM is at least 50%.
